Measured values published in PMC3263612, “Development of an Oral Form of Azacytidine: 2′3′5′Triacetyl-5-Azacytidine” (Chemotherapy Research and Practice, 2011).
Values after ≈ are worked out from the molar mass of the structure shown.

Key:
Solubility at various pH = type: physicochemical
Experimental: The solubility of TAC in comparison to ACT was evaluated at various pH. TAC and ACT were equally soluble at pH1 (40 mg/mL) and pH3 (25 mg/mL), while TAC was more soluble than ACT at pH5 (30 mg/mL versus 15 mg/mL) and pH7 (30 mg/mL versus 10 mg/mL). […] At pH 1, we observed a moderate hydrolysis of TAC (26%) to the mono- and diesters in the first 3 hours of incubation increasing to 60% after 6 hrs. However, after 24, 99% of TAC was hydrolyzed, including 46% to the parent compound, ACT.

[1] = Drug stability at pH 1, 3, 5 and 7.4 (LC/MS/MS); type: physicochemical; details: throughout the pH range, maximum stability at pH 1; data not shown
Experimental: ACT and TAC stabilities were determined after incubation at pH1 (2% Phosphoric acid), pH3 (0.1% Formic Acid), pH5 (K3PO4), and pH7.4 (Dulbecco's PBS). 100 ng of each compound was resuspended in 1.2 mL total volume, and 200 μL samples taken at 1, 3, 6, 29, and 48 hr. Each pH point was repeated 6 times in 2 dram vials with Teflon-lined screw caps at room temperature. Samples were extracted by solid-phase extraction using 100 ng decitabine as an internal standard and analyzed by tandem mass spectroscopy as described above.

[2] = LogP determination, shake-flask water/octanol; type: physicochemical; details: un-ionized, read-out: experimental LogP
Experimental: The OSIRIS Property Explorer software was used to generate initial cLogP values. […] The pH of the water was 2 units above the pKa of the compound, preventing ionization. The experiment was conducted using the shake-flask method, after allowing octanol and water to equilibrate for 24 hours at 25°C. The initial drug concentration in water was 0.2 mM. Tubes were rotated at a 45 degree angle for 10 minutes with a 3 second rotation. The test was performed in a constant environment of 20°C–25°C. Tubes were centrifuged at 1000 g for 10 minutes, and the octanol phase was extracted. The UV/Visible absorption spectrum was evaluated from 550 nm to 210 nm to determine the absorption maximum. The analyte concentration was determined and the LogP calculated: Log = log(concentration in octanol/concentration in water).

[3] = Pharmacokinetics and metabolism of TAC in mice; type: in vivo, C57/BL6 mice; details: ACT 25 mg/kg i.v., analyte ACT
Experimental: To monitor the in vivo absorption, distribution, and metabolism of TAC, a highly sensitive LC/MS/MS analytical method was developed that allows the quantitation of concentrations as low as 10 ng/mL of TAC and its metabolites. The samples were prepared by adding 200 μL of plasma to 400 μL of cold acetonitrile, vortexed, and centrifuged at 14,000 rpm for 10 minutes. The supernatant was placed into a 10 × 75 mm glass test tube and evaporated to 50 μL under nitrogen at 37°C. The residue was then diluted with 1 mL of 2% phosphoric acid and vortexed for 10 seconds at 3,000 rpm.
Solid phase extraction was conducted using a Varian Bond Elute PLEXA PCX 1 mL columns placed on a vacuum manifold. Columns were activated by adding 1 mL of MeOH followed by 1 mL H2O and 1 mL of 2% phosphoric acid. All samples were allowed to drip by gravity flow. The extraction columns were then washed sequentially with 1 mL 2% phosphoric acid, 1 mL H2O, and 1 mL MeOH/AcCN (1/1) and eluted into a 10 × 75 mm glass test tube containing 50 μL of 25% formic acid in MeOH with 2 × 600 μL of 2% NH4OH in MeOH/AcCN (1/1). The liquid was then evaporated to dryness with nitrogen at 37°C, and 100 μL of mobile phase A was added and vortexed for 10 seconds at 3,000 rpm and transferred to LC autosampler vials at 4°C.
HPLC separation was conducted on a reverse phase C18 column (Varian Pursuit C18, 3 micron particle size; 100 mm × 2.0 mm) using a Shimadzu SIL-HTc controller with dual LC-20AD pumps and DGU-20A3 degasser. The separation was achieved using a gradient of Mobile Phase A: 0.1% Formic Acid and Mobile Phase B: 0.1% Formic Acid, 90% MeOH with a flow rate of 400 μL/min at 40°C over 10 minutes. MS/MS fragmentation was performed on an Applied Biosystems API 3200 instrument with a Turbo V Ion Spray ion source and Positive ion polarity.
To evaluate the in vivo pharmacokinetic properties of TAC, C57/BL6 female mice of 20 g body weight were dosed with 38 mg/kg TAC p.o. (equimolar dose to 25 mg/kg of ACT) or 25 mg/kg ACT i.v. via tail vein injection. TAC and ACT were solubilized in 1X PBS immediately before administration and dosed at 0.01 mL/g fasted body weight. Blood samples (two time points per animal, three animals per time point) were obtained via retro-orbital bleeding with Natelson pipettes at 0.5, 1, 2, 4, 8, and 24 hours after drug administration. The collected blood was then centrifuged for 4 minutes at 13,000 g. Plasma was immediately extracted with cold acetonitrile and stored at −80°C until LC/MS/MS analysis.
Noncompartmental plasma pharmacokinetic parameters for TAC prodrug and ACT after oral TAC or i.v ACT administrations were estimated using the sparse sampling option in WinNonlin Software version 4.1 (Pharsight Corp., Mountain View, Calif, USA). Briefly, the WinNonlin sparse sampling option applies the linear trapezoidal rule for area under the concentration-time curve (AUC) calculations and generates a standard error for the mean AUC estimate that accounts for correlations in the data resulting from repeated sampling of individual mice. Parameters of interest included the AUC from time 0 to the last measurable concentration (AUClast), observed peak concentration after oral administration (Cmax), estimated peak concentration after i.v. administration (C0), mean residence time to the last measurable concentration (MRTlast), and the half-life of the terminal phase (T1/2). To assess the multiphasic decline in plasma concentrations, an alpha (T1/2α) half-life was also estimated using a log-linear regression of the mean ACT concentrations through 2 hours after dosing.

P15 promoter methylation = experiment: p15INK4B methylation status (EpiTect Methyl qPCR) in L1210 cells; type: cell-based, Mouse; details: 48 hours
Experimental: Mouse leukemia cells (L1210) were purchased from ATCC. The published IC50 value for ACT (0.2 uM) was first confirmed using the Promega CellTiter MTS assay. […] Genomic DNA was isolated after 48 hours using the Sigma GenElute Genomic DNA Kit, including the RNase treatment step to ensure no RNA carryover. The methylation status of p15INK4B was determined using a predesigned primer set and the EpiTect Methyl qPCR Assays MethylScreen technology (Qiagen, Frederick, Md, USA).

global DNA methylation = experiment: Global methylation detection assay in mouse tissues; type: in vivo, C57BL6 mice; set-up: unit not given here; details: 5 days ACT 25 mg/kg or TAC 38 mg/kg p.o., dot blot
Experimental: 24 hours following drug administration, snap-frozen mouse tissues were homogenized and genomic DNA isolated using Promega's Wizard Genomic DNA Purification Kit. 100 ng of EcoRI linearized genomic DNA was spotted onto PVDF membrane. The membrane was air-dried and repermeabilized according to manufacturer's instructions. Nonspecific binding was blocked using 5% milk in PBS-T and washed twice in PBS-T for 5 minutes. The membrane was incubated with primary antibody (1 : 1000 anti-5-methylcytosine in PBS-T, Calbiochem) for 1 hour then washed four times for five minutes each with PBS-T. The membrane was incubated with the HRP-conjugated secondary antibody for 1 hour and washed four times for five minutes each with PBS-T. Signal intensity following ECL detection was quantitated using KODAK Image Station software. Assay results were confirmed using EpiGentek's Methylamp Global DNA Methylation Quantification Kit per manufacturer's instructions.
In an in vivo experiment designed to evaluate the effect of a prolonged administration of TAC on global methylation, TAC (38 mg/kg p.o.) or ACT (25 mg/kg i.p.) diluted in PBS was administered to C57BL6 mice every 24 hours for 5 consecutive days (four animals per group). […] The positive results in gut and spleen were confirmed using the EpiGentek's Methylamp Global DNA Methylation Quantification Kit.

[4] = system: L1210 lymphocytic leukemia; experiment: In vivo L1210 lymphocytic leukemia model; set-up: species or system BDF1 mice
Experimental: The in vivo L1210 lymphocytic leukemia model in C57BL/6 × DBA/2 F1(BDF1) female mice was used to evaluate the in vivo antiproliferative effect of TAC. L1210 cells were carried in BDF1 mice by weekly i.p. (intraperitoneal) passages. Leukemia cells from ascites fluid were diluted appropriately in […] medium and injected i.p. (1×10^5 cells/0.1 mL/mouse) into recipient mice. A daily oral administration of TAC (38 mg/kg via oral gavage) or ACT (25 mg/kg administered i.p.) diluted in PBS was given to leukemic BDF1 mice starting 24 hours from the inoculation of L1210 cells for a total of 5 days. Compounds were prepared fresh daily. A group of untreated leukemic mice received sterile water for injections and served as controls.

L1210 cells = system: L1210 cells; set-up: method as in PMID 6083417; details: published value, confirmed by MTS assay; cited from earlier work
[5] = oral film-coated formulation, 80 mg dose, cited from earlier work
[6] = female, C57/BL6, mouse, plasma, iv
[7] = tissue 24 hours after treatment

In the case of `Nc1ncn([C@@H]2O[C@H](CO)[C@@H](O)[C@H]2O)c(=O)n1` [ACT, 5-azacitidine], the solubility (Solubility at various pH; pH 1, pH1) is reported as 40 mg/mL (≈ 164 mM), the solubility (Solubility at various pH; pH 3, pH3) is reported as 25 mg/mL (≈ 102 mM) and the solubility (Solubility at various pH; pH 5, pH5) is reported as 15 mg/mL (≈ 61.4 mM). For the same compound, the solubility (Solubility at various pH; pH 7, pH7) was 10 mg/mL (≈ 40.9 mM), the “stability of azacitidine in solution” value [1] was “significant degradation” and the logP [2] was -2.32. It also gave a T1/2α ([3]; data through 2 hours) of 0.32 h, a Cmax [3, 6] of 81.1 µM and an MRT last [3, 6] of 1.1 h. For the same compound, the C0 ([3]; female, C57/BL6, mouse, plasma, iv, estimated peak concentration) was 212 µM, the half-life ([3]; female, C57/BL6, mouse, plasma, iv, terminal phase) was 6.8 h and the AUC(0-t) ([3]; female, C57/BL6, mouse, plasma, iv, mean (standard error)) was 126 µM·h. The “decrease of P15 promoter methylation” value (P15 promoter methylation; 0.1 uM ACT) was 39% (±3), the “decrease of P15 promoter methylation” value (P15 promoter methylation; 10 uM ACT) was 49% (±17) and the “densitometry of methylation level, Gut Average” value (global DNA methylation; four animals) was 29. The “densitometry of methylation level, Spleen Average” value (global DNA methylation; four animals) was 50, the “densitometry of methylation level, Gut.1” value (global DNA methylation; [7]) was 37 and the “densitometry of methylation level, Gut.2” value (global DNA methylation; [7]) was 14. For the same compound, the “densitometry of methylation level, Gut.3” value (global DNA methylation; [7]) was 34, the “densitometry of methylation level, Gut.4” value (global DNA methylation; [7]) was 33 and the “densitometry of methylation level, Spleen.1” value (global DNA methylation; [7]) was 54. The “densitometry of methylation level, Spleen.2” value (global DNA methylation; [7]) was 71, the “densitometry of methylation level, Spleen.3” value (global DNA methylation; [7]) was 48 and the “densitometry of methylation level, Spleen.4” value (global DNA methylation; [7]) was 29. The survival ([4]; azacitidine 25 mg/kg i.p. (maximum tolerated dose) daily for 5 days) was 17 days, the increased lifespan ([4]; azacitidine 25 mg/kg i.p. daily for 5 days) was 112% and the weight reduction ([4]; azacitidine 25 mg/kg i.p., L1210-bearing mice) was 16%. For the same compound, the IC50 (L1210 cells) was 200 nM, the bioavailability ([5]; four human subjects) was 17.4% and the mean plasma half-life ([5]; human) was 0.39 h.
